Assay results taken from patent US20250204564A1, “TASTE MODIFYING COMPOSITIONS AND USES THEREOF” (Firmenich Incorporated, priority 2022, published 2025).

Tests used:
Format in all cases: in vivo
Bitterness of Saccharin = experiment: Blinded paired taste comparison, bitterness of saccharin; details: sample S1: TM1 10 ppm + saccharin 1000 ppm in water vs C, 33 panelists
Protocol: (§1) A test sample and a comparative sample were prepared. The comparative sample (C) contained saccharin in water at a concentration of 1000 ppm. The test sample (S1) contained saccharin in water at a concentration of 1000 ppm and TM1 at a concentration of 10 ppm. Sample pairs, a test sample and a comparative sample, were presented in a blinded fashion to panelists, they were asked to taste the samples and identify the sample with the highest bitterness.

Bitterness of Coffee = experiment: Blinded paired taste comparison, bitterness of instant coffee; details: sample S1: TM1 10 ppm in instant coffee (Taster's Choice French Roast) vs C, 33 panelists
Protocol: A test sample and a comparative sample were prepared. The comparative sample (C) instant coffee (Taster's Choice French Roast, acquired in the United States) made according to the directions. The test sample (S1) consisted of instant coffee (Taster's Choice French Roast, acquired in the United States) made according to the directions and TM1 at a concentration of 10 ppm. Sample pairs, a test sample and a comparative sample, were presented in a blinded fashion to panelists, they were asked to taste the samples and identify the sample with the highest bitterness.

Bitterness of Ginseng = experiment: Blinded paired taste comparison, bitterness of ginseng; details: sample S1: TM1 10 ppm + ginseng 0.036 wt % in water vs C, 39 panelists
Protocol: as §1, with “ginseng” for “saccharin”, “0.036 wt %.” for “1000 ppm.”, “0.036 wt %” for “1000 ppm”

Bitterness of Caffeine = experiment: Blinded paired taste comparison, bitterness of caffeine; details: sample S1: TM1 10 ppm + caffeine 0.08 wt % in water vs C, 39 panelists
Protocol: as §1, with “caffeine” for “saccharin”, “0.08 wt %.” for “1000 ppm.”, “0.08 wt %” for “1000 ppm”

[1] = test system: Bitterness of Potato Protein; experiment: Blinded paired taste comparison, bitterness of potato protein; details: sample S1: TM1 10 ppm + potato protein 4 wt % in water vs C, 39 panelists
Protocol: as §1, with “potato protein” for “saccharin”, “4 wt %.” for “1000 ppm.”, “4 wt %” for “1000 ppm”

[2] = test system: Bitterness of Grapefruit Juice; experiment: Blinded paired taste comparison, bitterness of grapefruit juice; details: 39 panelists
Protocol: as §1, with “consisted” for “contained saccharin in water at a concentration”, “grapefruit juice.” for “1000 ppm.”, “grapefruit juice” for “1000 ppm”

[3] = test system: Bitterness of Pea Protein; experiment: Blinded paired taste comparison, bitterness of pea protein; details: sample S1: TM1 10 ppm + pea protein 4 wt % in water vs C, 30 panelists
Protocol: as §1, with “pea protein” for “saccharin”, “4 wt %.” for “1000 ppm.”, “4 wt %” for “1000 ppm”

[4] = test system: Bitterness of Guaifenesin; experiment: Blinded paired taste comparison, bitterness of guaifenesin; details: 39 panelists
Protocol: as §1, with “guaifenesin” for “saccharin”, “24 mM.” for “1000 ppm.”, “24 mM” for “1000 ppm”, “50” for “10”

[5] = test system: Bitterness of Acetaminophen; experiment: Blinded paired taste comparison, bitterness of acetaminophen; details: for C Chosen: panelists choosing comparative sample C as highest bitterness; for Test Sample Chosen: panelists choosing test sample as highest bitterness
Protocol: (§2) A series of test samples and a comparative sample were prepared. The comparative sample (C) contained acetaminophen in water at a concentration of 90 mM. Four test samples were prepared. Each test sample contained acetaminophen in water at a concentration of 90 mM. In addition, one test sample (S1) also contained TM1 at 100 ppm, another sample (S2) contained TM1 at 50 ppm, another sample (S3) contained TM1 at 25 ppm, and another sample (S4) contained TM1 at 10 ppm. Sample pairs, a test sample and a comparative sample, were presented in a blinded fashion to panelists, they were asked to taste the samples and identify the sample with the highest bitterness.

Bitterness of Green Tea = experiment: Blinded paired taste comparison, bitterness of green tea extract; details: 39 panelists; for C Chosen: panelists choosing comparative sample C as highest bitterness; for Test Sample Chosen: panelists choosing test sample as highest bitterness
Protocol: as §2, with “green tea extract” for “acetaminophen”, “0.30 wt %. Two” for “90 mM. Four”, “0.30 wt %.” for “90 mM.”, “20” for “100”, “ppm, and” for “ppm,”, “40” for “50 ppm, another sample (S3) contained TM1 at 25 ppm, and another sample (S4) contained TM1 at 10”

[6] = panelists choosing comparative sample C as highest bitterness
[7] = panelists choosing test sample as highest bitterness
[8] = sample S2: TM1 50 ppm + acetaminophen 90 mM in water vs C, 48 panelists
[9] = sample S3: TM1 25 ppm + acetaminophen 90 mM in water vs C, 45 panelists
[10] = sample S4: TM1 10 ppm + acetaminophen 90 mM in water vs C, 45 panelists
[11] = sample S1: TM1 20 ppm + green tea extract 0.30 wt % in water vs C
[12] = sample S2: TM1 40 ppm + green tea extract 0.30 wt % in water vs C

`CC(=O)c1cc2c(cc1NC(=O)CN1CCN(C(C)=O)CC1)OCCO2` [TM1, N-(7-acetyl-2,3-dihydrobenzo[b][1,4]dioxin-6-yl)-2-(4-acetylpiperazin-1-yl)acetamide] was tested, and the “C Chosen” value (Bitterness of Saccharin; [6]) was 24, the “Test Sample Chosen” value (Bitterness of Saccharin; [7]) was 9 and the “C Chosen” value (Bitterness of Coffee; [6]) was 27. The “Test Sample Chosen” value (Bitterness of Coffee; [7]) was 6, the “C Chosen” value (Bitterness of Ginseng; [6]) was 26 and the “Test Sample Chosen” value (Bitterness of Ginseng; [7]) was 13. The “C Chosen” value (Bitterness of Caffeine; [6]) was 29, the “Test Sample Chosen” value (Bitterness of Caffeine; [7]) was 10 and the “C Chosen” value [1, 6] was 26. The “Test Sample Chosen” value [1, 7] was 13, the “C Chosen” value ([2]; panelists choosing comparative sample C as highest bitterness, sample S1: TM1 10 ppm in grapefruit juice vs C) was 26 and the “Test Sample Chosen” value ([2]; panelists choosing test sample as highest bitterness, sample S1: TM1 10 ppm in grapefruit juice vs C (grapefruit juice)) was 13. The “C Chosen” value [3, 6] was 20, the “Test Sample Chosen” value [3, 7] was 10 and the “C Chosen” value ([4]; panelists choosing comparative sample C as highest bitterness, sample S1: TM1 50 ppm + guaifenesin 24 mM in water vs C) was 32. The “Test Sample Chosen” value ([4]; panelists choosing test sample as highest bitterness, sample S1: TM1 50 ppm + guaifenesin 24 mM in water vs C (guaifenesin 24 mM)) was 7, the “C Chosen” value ([5]; sample S1: TM1 100 ppm + acetaminophen 90 mM in water vs C, 31 panelists) was 27 and the “C Chosen” value [5, 8] was 39. For the same compound, the “C Chosen” value [5, 9] was 33, the “C Chosen” value [5, 10] was 31 and the “Test Sample Chosen” value ([5]; sample S1: TM1 100 ppm + acetaminophen 90 mM in water vs C (acetaminophen 90 mM), 31 panelists) was 4. The “Test Sample Chosen” value [5, 8] was 9, the “Test Sample Chosen” value [5, 9] was 12 and the “Test Sample Chosen” value [5, 10] was 14. For the same compound, the “C Chosen” value (Bitterness of Green Tea; [11]) was 28, the “C Chosen” value (Bitterness of Green Tea; [12]) was 26 and the “Test Sample Chosen” value (Bitterness of Green Tea; [11]) was 11. For the same compound, the “Test Sample Chosen” value (Bitterness of Green Tea; [12]) was 13.
